Test results from patent publication US9765039B2, “Biaryl derivatives as bromodomain inhibitors” (Zenith Epigenetics Ltd., priority 2012, dated 2017).

What was measured:
[1] = target: T1, Brd4 bromodomain 1 (Homo sapiens, UniProt O60885); assay: Inhibition of tetra-acetylated histone H4 binding to BET bromodomains (TR-FRET); design: key: Active: Compounds with an IC50 value less than 30 μM were deemed to be active.; Not Active: Compounds with an IC50 value less than 30 μM were deemed to be active; conditions: first bromodomain of Brd4, tetra-acetylated histone H4 peptide
T1 construct: made in house; host or cells: E. coli BL21(DE3)
How it was run: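 TR-FRET with N-terminally His-tagged bromodomains (200 nM, E. coli-expressed, Ni affinity and SEC-purified) and biotinylated tetra-acetylated histone H4 peptide (25–50 nM), detected with Eu-cryptate streptavidin and XL665 anti-His antibody. Buffer 30 mM HEPES pH 7.4, 320 mM KF, 0.08% BSA, 0.2% DMSO; 2 h RT. IC50 from decrease in 665/620 nm ratio.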

[2] = tested on: c-myc; assay: Inhibition of c-myc expression in cancer cell lines (mRNA, real-time PCR); type: cell-based; design: key: Active: Compounds with an IC50 value less than 30 μM were deemed to be active; conditions: Human AML MV4-11 cells, 3 hours
How it was run: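 MV4-11 cells (2.5×10^4) exposed to compound or 0.1% DMSO for 3 h at 37° C, then lysed for mRNA isolation. c-myc and cyclophilin cDNAs co-amplified by duplex RT real-time PCR. IC50 from dose-response curve.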

[3] = tested on: Human AML MV-4-11 cells; assay: Inhibition of cell proliferation in cancer cell lines (CellTiter Aqueous One); type: cell-based; design: key: Active: Compounds with an IC50 value less than 30 μM were deemed to be active.; Not Active: Compounds with an IC50 value less than 30 μM were deemed to be active; conditions: 72 hours
How it was run: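 Exponentially growing MV-4-11 cells were treated immediately with two-fold compound dilutions from 30 µM to 0.2 µM in triplicate for 72 h at 37 °C. Viability was read by MTS (CellTiter Aqueous One) absorbance at 490 nm after 3-4 h; % proliferation vs DMSO gave IC50.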

[4] = tested on: hIL-6 mRNA; assay: Inhibition of hIL-6 mRNA transcription in LPS-stimulated U937 macrophages; type: cell-based, human; design: key: Active: Compounds with an IC50 value less than 30 μM are deemed to be active; conditions: U937 differentiated into macrophages, 1 h pretreatment, lipopolysaccharide 3 h
How it was run: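 U937 cells differentiated 3 days with 60 ng/mL PMA, pretreated 1 h with compound, then stimulated with […] E. coli LPS for 3 h at 37° C. hIL-6 mRNA quantified by one-step real-time RT-PCR, Ct normalised to internal control and expressed as fold induction relative to control.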

[5] = tested on: hApoA-1 mRNA; assay: Up-regulation of hApoA-1 mRNA transcription in Huh7 cells; type: cell-based, human; design: key: Active: Compounds with an EC170 value less than 30 μM are deemed to be active.; Not Active: Compounds with an EC170 value less than 30 μM are deemed to be active; conditions: 48 hrs treatment, ApoA-I mRNA
Description: In this example, ApoA-I mRNA in tissue culture cells was quantitated to measure the transcriptional up-regulation of ApoA-I when treated with a compound of the present disclosure.
Huh7 cells ([…] per well) were plated in a 96-well plate using 100 μL DMEM per well, (Gibco DMEM supplemented with penicillin/streptomycin and 10% FBS), 24 h before the addition of the compound of interest. After 48 hrs treatment, the spent media was removed from the Huh-7 cells and placed on ice (for immediate use) or at −80° C. (for future use) with the “LDH cytotoxicity assay Kit II” from Abcam. The cells remaining in the plate were rinsed with 100 μL PBS.
Then 85 μL of cell lysis solution was added to each well and incubated for 5-10 minutes at room temperature, to allow for complete cell lysis and detachment. mRNA was then prepared using the “mRNA Catcher PLUS plate” from Life Technologies, according to the protocol supplied. After the last wash, as much wash buffer as possible was aspirated without allowing the wells to dry. Elution Buffer (E3, 80 μL) was then added to each well. mRNA was then eluted by incubating the mRNA Catcher PLUS plate with Elution Buffer for 5 minutes at 68° C., and then 1 minute at 4° C. Catcher plates with mRNA eluted were kept on ice for use or stored at −80° C.
The eluted mRNA isolated was then used in a one-step real-time PCR reaction, using components of the Ultra Sense Kit together with Life Technologies primer-probe mixes. Real-time PCR data was analyzed, using the Ct values, to determine the fold induction of each unknown sample, relative to the control (that is, relative to the control for each independent DMSO concentration).
Compounds with an EC170 value less than 30 μM are deemed to be active.

SMILES | FRET activity (IC50 < 30 μM) [1] | c-myc activity (IC50 < 30 μM) [2] | cell proliferation activity (IC50 < 30 μM) [3] | IL-6 activity (IC50 < 30 μM) [4] | ApoA-1 Activity (EC170 < 30 μM) [5] | melting point [°C]
COc1cc(OC)c2c(=O)[nH]c(-c3ccc(OCCNC(C)C)c(-c4ccc(S(C)(=O)=O)cc4C)n3)nc2c1 [Example 45, 2-(5-(2-(Isopropylamino)ethoxy)-6-(2-methyl-4-(methylsulfonyl)phenyl)pyridin-2-yl)-5,7-dimethoxyquinazolin-4(3H)-one] | Active | Active | Active | Active | Active | 202 to 203
COc1cc(OC)c2c(=O)[nH]c(-c3cccc(-c4ccc(C(=O)N(C)C)cc4)n3)nc2c1 [Example 20, 4-(6-(5,7-Dimethoxy-4-oxo-3,4-dihydroquinazolin-2-yl)pyridin-2-yl)-N,N-dimethylbenzamide] | Active | Active | Not Active | Active | Active | 217 to 219
COc1cc(OC)c2c(=O)[nH]c(-c3ccc(OCCN4CCCC4)c(-c4ccc(S(C)(=O)=O)cc4)n3)nc2c1.Cl [Example 29, 5,7-Dimethoxy-2-(6-(4-(methylsulfonyl)phenyl)-5-(2-(pyrrolidin-1-yl)ethoxy)pyridin-2-yl)quinazolin-4(3H)-one hydrochloride] | Active | Active | Active | Active | Active | 211 to 213
COc1cc(OC)c2c(=O)[nH]c(-c3cccc(-c4ccc([S+](C)[O-])cc4)n3)nc2c1 (stereo not drawn) [Example 49, 5,7-Dimethoxy-2-(6-(4-(methylsulfinyl)phenyl)pyridin-2-yl)quinazolin-4(3H)-one] | Active | Not Active | Active | Active | Active | 281 to 282
COc1ccc2c(=O)[nH]c(-c3ccc(OCCNC(C)C)c(-c4ccc(S(C)(=O)=O)cc4)n3)nc2c1 [Example 67] | Active | Active | Active | Not Active | Active | 204 to 205
COc1cc(OC)c2c(=O)[nH]c(-c3ccc(OCCN(C(=O)OC(C)(C)C)C(C)C)c(-c4ccc([S+](C)[O-])cc4)n3)nc2c1 (stereo not drawn) [Example 53, tert-Butyl (2-((6-(5,7-dimethoxy-4-oxo-3,4-dihydroquinazolin-2-yl)-2-(4-(methylsulfinyl)phenyl)pyridin-3-yl)oxy)ethyl)(isopropyl)carbamate] | Active | Not Active | Not Active | Not Active | Active | 114 to 116
COc1cc(OC)c2c(=O)[nH]c(-c3ccc(OCCNC(C)C)c(-c4ccc(S(C)(=O)=O)cc4C(F)(F)F)n3)nc2c1 [Example 46, 2-(5-(2-(Isopropylamino)ethoxy)-6-(4-(methylsulfonyl)-2-(trifluoromethyl)phenyl)pyridin-2-yl)-5,7-dimethoxyquinazolin-4(3H)-one] | Active | Active | Active | Active | Active | 199 to 201
COc1cc(OC)c2c(=O)[nH]c(-c3ccc(OCCO)c(-c4ccc(S(C)(=O)=O)cc4)n3)nc2c1 [Example 24, 2-(5-(2-Hydroxyethoxy)-6-(4-(methylsulfonyl)phenyl)pyridin-2-yl)-5,7-dimethoxyquinazolin-4(3H)-one] | Active | Not Active | Not Active | Active | Active | > 300
COc1cc(OC)c2c(=O)[nH]c(-c3ccc(OC)c(-c4ccc(C(=O)N(C)C)cc4Cl)c3)nc2c1 [Example 59, 2-Chloro-5′-(5,7-dimethoxy-4-oxo-3,4-dihydroquinazolin-2-yl)-2′-methoxy-N,N-dimethyl-[1,1′-biphenyl]-4-carboxamide] | Active | Active | Not Active | Active | Active | > 300
COc1cc(OC)c2c(=O)[nH]c(-c3ccc(OCCO)c(-c4ccc([S+](C)[O-])cc4)n3)nc2c1 (stereo not drawn) [Example 38, 2-(5-(2-Hydroxyethoxy)-6-(4-(methylsulfinyl)phenyl)pyridin-2-yl)-5,7-dimethoxyquinazolin-4(3H)-one] | Active | Active | Active | Active | Active | 281 to 282
COc1cc(OC)c2c(=O)[nH]c(-c3ccc(OCCNC(C)C)c(-c4ccc(C(=O)N(C)C)cc4)n3)nc2c1 [Example 26, 4-(6-(5,7-Dimethoxy-4-oxo-3,4-dihydroquinazolin-2-yl)-3-(2-(isopropylamino)ethoxy)pyridin-2-yl)-N,N-dimethylbenzamide] | Active | Active | Active | Active | Active | 214 to 215
COc1cc(OC)c2c(=O)[nH]c(-c3ccc(OCCN4CCCC4)c(-c4ccc([S+](C)[O-])cc4)n3)nc2c1 (stereo not drawn) [Example 55, 5,7-Dimethoxy-2-(6-(4-(methylsulfinyl)phenyl)-5-(2-(pyrrolidin-1-yl)ethoxy)pyridin-2-yl)quinazolin-4(3H)-one] | Active | Not Active | Active | Active | Active | 103 to 105
